Reference: the NIST ThermoML archive (doi:10.1021/je049796y)
Numbers after ± are expanded uncertainties.

Assay: xn = mol fraction of the nth substance listed
Details: 283.65 K, Vibrating tube method

C=C [ethene] + CCO
Details	mass density [kg/m3]
Liquid mixture 1, x1 = 0.685	529.3 ± 1.9
Liquid mixture 1, x1 = 0.712	503.5 ± 1.9
Liquid mixture 2, x1 = 0.862	410 ± 1.7
Liquid mixture 2, x1 = 0.892	385.6 ± 1.7

Liquid
Details	mass density [kg/m3]
x1 = 0.101	767.8 ± 0.7
x1 = 0.178	741.9 ± 0.8
x1 = 0.268	708.7 ± 0.8
x1 = 0.408	661.3 ± 0.8
x1 = 0.512	614.1 ± 1
x1 = 0.614	564.2 ± 1.3
x1 = 0.94	347.3 ± 2.1
x1 = 0.989	295.1 ± 2.1
